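All cell lines were grown in 96-well plates and treated with compound for 48 hours. The concentration for 50% growth inhibition is given as GI50.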 Activity calls are given as the source filed them. Cut-off read from the data, not from the text of the source: active = GI50 up to about 1.1 µM and inactive = higher.
Assays:
Test in all cases: growth of human tumour cells (NCI), 48 h
NCI-H23 = test system: NCI-H23
A549 = test system: A549
UACC-62 = test system: UACC-62
HOP-62 = test system: HOP-62
TK-10 = test system: TK-10
OVCAR-4 = test system: OVCAR-4
HOP-92 = test system: HOP-92
Malme-3M = test system: Malme-3M
IGROV-1 = test system: IGROV-1
UACC-257 = test system: UACC-257
SK-MEL-5 = test system: SK-MEL-5
SF-295 = test system: SF-295
KM12 = test system: KM12
HL-60 = test system: HL-60
SW-620 = test system: SW-620
CCRF-CEM = test system: CCRF-CEM
SF-268 = test system: SF-268
OVCAR-3 = test system: OVCAR-3
SNB-75 = test system: SNB-75
OVCAR-8 = test system: OVCAR-8

| Compound | GI50 (NCI-H23) | GI50 (A549) | GI50 (UACC-62) | GI50 (HOP-62) | GI50 (TK-10) | GI50 (OVCAR-4) | GI50 (HOP-92) | GI50 (Malme-3M) | GI50 (IGROV-1) | GI50 (UACC-257) | GI50 (SK-MEL-5) | GI50 (SF-295) | GI50 (KM12) | GI50 (HL-60) | GI50 (SW-620) | GI50 (CCRF-CEM) | GI50 (SF-268) | GI50 (OVCAR-3) | GI50 (SNB-75) | GI50 (OVCAR-8) |
| --- | --- | --- | --- | --- | --- | --- | --- | --- | --- | --- | --- | --- | --- | --- | --- | --- | --- | --- | --- | --- |
| CC1=NN(C(=O)CC(=O)Nc2ccc(Cl)cc2)C(=O)C1/N=N\c1ccc(S(=O)(=O)c2ccc(/N=N/C3C(=O)N(C(=O)CC(=O)Nc4ccc(Cl)cc4)N=C3C)cc2)cc1 (stereo unspecified) | > 100 µM (inactive) | > 100 µM (inactive) | > 100 µM (inactive) | 54.5 µM (inactive) | 35.7 µM (inactive) | > 100 µM (inactive) | > 100 µM (inactive) | > 100 µM (inactive) | > 100 µM (inactive) | > 100 µM (inactive) | 95.7 µM (inactive) | > 100 µM (inactive) | > 100 µM (inactive) | > 100 µM (inactive) | > 100 µM (inactive) | > 100 µM (inactive) | > 100 µM (inactive) | > 100 µM (inactive) | 39.5 µM (inactive) | > 100 µM (inactive) |
| O=C1c2ccccc2-c2nnc3c(c21)Cc1ccccc1C3 | > 10 µM (inactive) | > 10 µM (inactive) | > 10 µM (inactive) | > 10 µM (inactive) | > 10 µM (inactive) | > 10 µM (inactive) | > 10 µM (inactive) | > 10 µM (inactive) | > 10 µM (inactive) | – | > 10 µM (inactive) | > 10 µM (inactive) | > 10 µM (inactive) | > 10 µM (inactive) | > 10 µM (inactive) | > 10 µM (inactive) | > 10 µM (inactive) | > 10 µM (inactive) | 2.43 µM (inactive) | > 10 µM (inactive) |
| CC(NNC(=O)c1ccncc1)c1ccc(Cl)c(Cl)c1 (stereo unspecified) | 57.7 µM (inactive) | > 100 µM (inactive) | > 100 µM (inactive) | > 100 µM (inactive) | > 100 µM (inactive) | > 100 µM (inactive) | > 100 µM (inactive) | > 100 µM (inactive) | > 100 µM (inactive) | > 100 µM (inactive) | > 100 µM (inactive) | > 100 µM (inactive) | > 100 µM (inactive) | 34.8 µM (inactive) | > 100 µM (inactive) | 43.4 µM (inactive) | > 100 µM (inactive) | > 100 µM (inactive) | > 100 µM (inactive) | > 100 µM (inactive) |
| C=C1CC[C@@H]2[C@](C)(COC(=O)CCC(=O)O)CCC[C@@]2(C)[C@@H]1CCC1=CC(=O)OC1 | > 100 µM (inactive) | > 100 µM (inactive) | > 100 µM (inactive) | > 100 µM (inactive) | > 100 µM (inactive) | > 100 µM (inactive) | > 100 µM (inactive) | > 100 µM (inactive) | > 100 µM (inactive) | > 100 µM (inactive) | 42.9 µM (inactive) | > 100 µM (inactive) | > 100 µM (inactive) | > 100 µM (inactive) | > 100 µM (inactive) | > 100 µM (inactive) | > 100 µM (inactive) | > 100 µM (inactive) | > 100 µM (inactive) | > 100 µM (inactive) |
| Cc1csc2nc(-c3cccc([N+](=O)[O-])c3)c(/C=N/N=C(N)N)n12 | 1.71 µM (inactive) | 1.72 µM (inactive) | 1.46 µM (inactive) | 1.71 µM (inactive) | 1.78 µM (inactive) | 1.78 µM (inactive) | 0.0968 µM (active) | 1.72 µM (inactive) | 1.81 µM (inactive) | 1.78 µM (inactive) | 1.55 µM (inactive) | 1.69 µM (inactive) | 1.68 µM (inactive) | 1.25 µM (inactive) | 1.71 µM (inactive) | 1.92 µM (inactive) | 1.82 µM (inactive) | 1.62 µM (inactive) | 1.75 µM (inactive) | 1.74 µM (inactive) |
| O=[N+]([O-])c1ccc2c(c1)=[N+]([O-])C1(CCCCC1)[N+]=2[O-] | 22.9 µM (inactive) | 19.7 µM (inactive) | 10.4 µM (inactive) | 17.1 µM (inactive) | 13.3 µM (inactive) | 11.6 µM (inactive) | 15.3 µM (inactive) | 15.2 µM (inactive) | 20.4 µM (inactive) | 15.1 µM (inactive) | 15 µM (inactive) | 19.8 µM (inactive) | 20.5 µM (inactive) | 3.27 µM (inactive) | 15.9 µM (inactive) | 3.36 µM (inactive) | 26.9 µM (inactive) | 15.6 µM (inactive) | 17.3 µM (inactive) | 15.8 µM (inactive) |
| COc1cc2c(c(OC)c1OC)-c1ccc(SC)c(=O)cc1[C@@H](NCc1ccccc1[N+](=O)[O-])CC2 | 0.00429 µM (active) | 0.00929 µM (active) | 0.00326 µM (active) | 0.0174 µM (active) | 0.061 µM (active) | 0.719 µM (active) | 0.0257 µM (active) | 0.00817 µM (active) | 0.0135 µM (active) | 0.00561 µM (active) | 0.00411 µM (active) | 0.00826 µM (active) | 0.00406 µM (active) | 0.00313 µM (active) | 0.00333 µM (active) | 0.00532 µM (active) | 0.0106 µM (active) | 0.00428 µM (active) | 0.00225 µM (active) | 0.0184 µM (active) |
| N/C(=N\Nc1ccc(S(N)(=O)=O)cc1)c1cnccn1 | > 100 µM (inactive) | > 100 µM (inactive) | > 100 µM (inactive) | > 100 µM (inactive) | > 100 µM (inactive) | > 100 µM (inactive) | > 100 µM (inactive) | > 100 µM (inactive) | > 100 µM (inactive) | > 100 µM (inactive) | > 100 µM (inactive) | > 100 µM (inactive) | > 100 µM (inactive) | > 100 µM (inactive) | > 100 µM (inactive) | > 100 µM (inactive) | > 100 µM (inactive) | > 100 µM (inactive) | > 100 µM (inactive) | > 100 µM (inactive) |
| CCC(=O)COc1ccc(NC(NC(=O)C(C(F)(F)F)C(F)(F)F)(C(F)(F)F)C(F)(F)F)cc1 | 36.5 µM (inactive) | 54.5 µM (inactive) | – | > 100 µM (inactive) | 37 µM (inactive) | 35.6 µM (inactive) | 39.1 µM (inactive) | 27 µM (inactive) | 19.4 µM (inactive) | 53.7 µM (inactive) | 42.3 µM (inactive) | 66.4 µM (inactive) | 36.2 µM (inactive) | 22.2 µM (inactive) | 41.3 µM (inactive) | 22.3 µM (inactive) | 27.9 µM (inactive) | 94 µM (inactive) | 23.7 µM (inactive) | 23.9 µM (inactive) |
| Cc1ccc(C)c(NC(=O)/C(=N\NC(N)=S)C(C#N)c2ccccc2)c1 (stereo unspecified) | > 100 µM (inactive) | > 100 µM (inactive) | > 100 µM (inactive) | > 100 µM (inactive) | > 100 µM (inactive) | > 100 µM (inactive) | > 100 µM (inactive) | > 100 µM (inactive) | > 100 µM (inactive) | > 100 µM (inactive) | > 100 µM (inactive) | > 100 µM (inactive) | > 100 µM (inactive) | > 100 µM (inactive) | > 100 µM (inactive) | > 100 µM (inactive) | > 100 µM (inactive) | > 100 µM (inactive) | > 100 µM (inactive) | > 100 µM (inactive) |
| COc1cccc(NC(=O)C(C)(C)C)c1C=O | 48.3 µM (inactive) | 71.1 µM (inactive) | 74.3 µM (inactive) | > 100 µM (inactive) | 35 µM (inactive) | 46.1 µM (inactive) | 54 µM (inactive) | > 100 µM (inactive) | 56.1 µM (inactive) | 65.8 µM (inactive) | 88.1 µM (inactive) | 67.6 µM (inactive) | 42.3 µM (inactive) | 26.7 µM (inactive) | 34.7 µM (inactive) | 32.1 µM (inactive) | 47.5 µM (inactive) | 37 µM (inactive) | 39.3 µM (inactive) | 57.9 µM (inactive) |
| COC(CN(C=O)[C@@H](c1ccc(Cl)cc1)c1cc2ccccc2o1)OC | 18.5 µM (inactive) | 21 µM (inactive) | 14.8 µM (inactive) | 22 µM (inactive) | 15.5 µM (inactive) | 19.2 µM (inactive) | 16.7 µM (inactive) | 0.397 µM (active) | 14.8 µM (inactive) | 14 µM (inactive) | 15.5 µM (inactive) | 16.9 µM (inactive) | 11.1 µM (inactive) | 20.5 µM (inactive) | 16.6 µM (inactive) | 21.1 µM (inactive) | 15.3 µM (inactive) | 12.7 µM (inactive) | 22.9 µM (inactive) | 16 µM (inactive) |
| O=C(O)c1cc2ccccc2c(/N=N/c2ccc(S(=O)(=O)Nc3ncccn3)cc2)c1O | – | > 100 µM (inactive) | > 100 µM (inactive) | > 100 µM (inactive) | > 100 µM (inactive) | > 100 µM (inactive) | > 100 µM (inactive) | > 100 µM (inactive) | > 100 µM (inactive) | > 100 µM (inactive) | > 100 µM (inactive) | > 100 µM (inactive) | > 100 µM (inactive) | > 100 µM (inactive) | > 100 µM (inactive) | > 100 µM (inactive) | > 100 µM (inactive) | > 100 µM (inactive) | > 100 µM (inactive) | > 100 µM (inactive) |
| CN1CCN(C(=S)N(C(=O)c2ccco2)C2CCCCC2)CC1 | > 100 µM (inactive) | > 100 µM (inactive) | > 100 µM (inactive) | – | > 100 µM (inactive) | > 100 µM (inactive) | > 100 µM (inactive) | > 100 µM (inactive) | > 100 µM (inactive) | > 100 µM (inactive) | > 100 µM (inactive) | > 100 µM (inactive) | > 100 µM (inactive) | > 10 µM (inactive) | > 100 µM (inactive) | > 100 µM (inactive) | > 100 µM (inactive) | > 100 µM (inactive) | 50.7 µM (inactive) | > 100 µM (inactive) |

Source: ChEMBL document CHEMBL1201862, “PubChem BioAssay data set” (2004)
